According to patent publication US20250195530A1, “POLQ INHIBITORS” (ASTRAZENECA AB, priority 2022, published 2025):
Where two headings read alike, the source gives them in different places.

Tested on: DLD-1 BRCA2−/− cells
Assay: Homologous recombination synthetic lethal inhibition of proliferation, DLD-1 BRCA2-/- (Cell Titre Glo 3D)
Format: cell-based
Settings: Homo sapiens
Source text: This assay identifies anti-proliferative effects of POLQ compounds in the homologous recombination deficient colorectal cell line DLD-1 BRCA2−/− over 8-9 population doublings (7 days for DLD-1 and 12 days for DLD-1 BRCA2−/−). DLD1 BRCA2 wt are used as a control to detect cell toxic effects not specific to homologous recombination deficiency.
DLD-1 BRCA2−/− and DLD-1 cells were kept in continuous culture in Assay Medium (RPMI 1640 phenol red free (Sigma R7509) containing 1% GlutaMAX (Gibco 35050) and 10% Foetal Bovine Serum (Gibco 10270-106)). On the day of the assay cells in culture of ˜80-90% confluent were used. Cell monolayers were washed with 10 mL PBS, then removed and added 2 mL TrypLE Express (Gibco 12604). The cells with TrypLE Express were incubated for 5 minutes in cell culture incubator and then the detached cells resuspend in 15 mL Assay Medium. Cells were counted using a ViCell and the cell images were monitored for clumps of cells, ideally they should be single or <3 cell clusters. The cells were diluted to 3,000 cells/mL of DLD-1 BRCA2−/− and 1,500 cells/mL of DLD-1 in Assay Medium and 100 μL added per well of transparent bottomed, black, tissue culture-treated 96-well plates (CoStar, No. 3904) Assay Ready Plates. The Assay Ready Plates contain a 10 point 10 μM to 0.51 nM dose range with three-fold dilutions in DMSO with a final volume of 100 nL. The plates were incubated at 37° C. with 5% C02 for 6 days. On day 6, 100 μL/well of Assay Medium was added to duplicate Assay Ready Plates. 90 μL of culture medium was removed from the cell plates and replenished with the Assay Media and compounds from the duplicate Assay Ready Plates using the Bravo. The plates were further incubated at 37° C. with 5% CO2. On day 7 the plates containing DLD-1 and Cell Titre Glo 3D (Promega G9683) were equilibrated to room temperature, then 60 μL of Cell Titre Glo 3D was added per well and incubated on a shaking platform for 30 min. Plates were read on the Envision measuring luminescence for 1 second per well. On day 12 the plates containing DLD-1 BRCA2−/− cells and Cell Titre Glo 3D (Promega G9683) were equilibrated to room temperature, then 60 μL Cell Titre Glo 3D added per well and incubated on a shaking platform for 30 min. Plates were read on the Envision measuring luminescence for 1 second per well. The data was exported into a suitable software package (such as Genedata) to perform curve fitting analysis. Inhibition of cell proliferation was expressed as an IC5o value and was determined by calculation of the concentration of compound that was required to give a 50% reduction of the average maximum Total Intensity signal.

[1] = DLD-1, first proliferation column (c5), DLD-1 BRCA2-/-, read-out: POLQ PD Prolif Lumin (converted)
[2] = DLD-1, first proliferation column, DLD-1 BRCA2-/-, read-out: POLQ PD Prolif Lumin (converted)
[3] = DLD-1, DLD-1 BRCA2 −/− cells, mean, read-out: POLQ PD Prolif Lumin BRCA2 −/− mean pIC50 (converted)
[4] = DLD-1, DLD-1 BRCA2 −/−, mean, read-out: POLQ PD Prolif Lumin BRCA2 −/− mean pIC50 (converted)

SMILES	IC50 [1] [µM]	IC50 [3] [µM]	further results
CC1(Oc2ncnc3c2nc(-c2ccc(OCCCc4nnn[nH]4)cc2Cl)n3Cc2cccc(Cl)c2)CC1 [Example T164, 8-(4-(3-(1H-tetrazol-5-yl)propoxy)-2-chlorophenyl)-9-(3-chlorobenzyl)-6-(1-methylcyclopropoxy)-9H-purine]	0.794	–	–
COC(=O)CCOc1ccc(-c2nc3c(OC4(C)CC4)ncnc3n2Cc2cccc(Cl)c2)c(Cl)c1 [Example T156, methyl 3-(3-chloro-4-(9-(3-chlorobenzyl)-6-(1-methylcyclopropoxy)-9H-purin-8-yl)phenoxy)propanoate]	0.2	–	–
C[C@@H]1CNCCN1CCOc1ccc(-c2nc3c(OC4(C)CC4)ncnc3n2Cc2cc(Cl)ccn2)c(Cl)c1 [Example T522, (R)-8-(2-chloro-4-(2-(2-methylpiperazin-1-yl)ethoxy)phenyl)-9-((4-chloropyridin-2-yl)methyl)-6-(1-methylcyclopropoxy)-9H-purine]	0.251	–	–
Cc1ccnc(Cn2c(-c3ccc(OCCCO)cc3Cl)nc3c(OC4(C)CC4)ncnc32)c1 [Example T124, 3-(3-chloro-4-(6-(1-methylcyclopropoxy)-9-((4-methylpyridin-2-yl)methyl)-9H-purin-8-yl)phenoxy)propan-1-ol]	0.0794	–	–
Cc1ccnc(Cn2c(-c3ccc(OCC(=O)N(C)CC4(O)CC4)cc3Cl)nc3c(OC4(C)CC4)ncnc32)c1 [Example T583, 2-(3-chloro-4-(6-(1-methylcyclopropoxy)-9-((4-methylpyridin-2-yl)methyl)-9H-purin-8-yl)phenoxy)-N-((1-hydroxycyclopropyl)methyl)-N-methylacetamide]	–	–	IC50 [2]: 2 µM
CC1(Oc2ncnc3c2nc(-c2ccc(CC(N)=O)cc2Cl)n3Cc2cccc(F)c2)CC1 [Example T42, 2-(3-chloro-4-(9-(3-fluorobenzyl)-6-(1-methylcyclopropoxy)-9H-purin-8-yl)phenyl)acetamide]	–	0.158	–
Cc1ccnc(Cn2c(-c3ccc(O[C@H]4CNC(=O)C4)cc3Cl)nc3c(OC4(C)CC4)ncnc32)c1 [Example T183, (R)-4-(3-chloro-4-(6-(1-methylcyclopropoxy)-9-((4-methylpyridin-2-yl)methyl)-9H-purin-8-yl)phenoxy)pyrrolidin-2-one]	0.398	–	–
CC1(Oc2ncnc3c2nc(-c2ccc(OCCNC(=O)CO)cc2Cl)n3Cc2ccccc2)CC1 [Example D26, N-(2-(4-(9-benzyl-6-(1-methylcyclopropoxy)-9H-purin-8-yl)-3-chlorophenoxy)ethyl)-2-hydroxyacetamide]	–	–	IC50 (DLD-1, 288 h, DLD-1 BRCA2−/− cells, 12 days, read-out: POLQ PD Prolif Lumin BRCA2 −/− mean pIC50 (converted)): 0.1 µM
Cc1cnc(Cn2c(-c3ccc(OCCN4CC[C@@H](O)C4)cc3Cl)nc3c(OC4(C)CC4)ncnc32)s1 [Example T245, (R)-1-(2-(3-chloro-4-(6-(1-methylcyclopropoxy)-9-((5-methylthiazol-2-yl)methyl)-9H-purin-8-yl)phenoxy)ethyl)pyrrolidin-3-ol]	–	–	IC50 (DLD-1, DLD-1 BRCA2-/- proliferation, column head only partly shown, read-out: POLQ PD Prolif Lumin (converted)): 0.631 µM
C[C@@H](COc1cccc(-c2nc3c(OC4(C)CC4)ncnc3n2Cc2cccc(Cl)c2)c1Cl)C(=O)O [Example T160, (S)-3-(2-chloro-3-(9-(3-chlorobenzyl)-6-(1-methylcyclopropoxy)-9H-purin-8-yl)phenoxy)-2-methylpropanoic acid]	0.2	–	–
Cc1nnc(Cn2c(-c3ccc(CC(N)=O)cc3Cl)nc3c(OC4(C)CC4)ncnc32)s1 [Example T1, 2-(3-chloro-4-(9-((5-methyl-1,3,4-thiadiazol-2-yl)methyl)-6-(1-methylcyclopropoxy)-9H-purin-8-yl)phenyl)acetamide]	–	> 10	–
CNC(=O)COc1ccc(-c2nc3c(OC4(C)CC4)ncnc3n2Cc2cncs2)c(Cl)c1 [Example T8, 2-(3-chloro-4-(6-(1-methylcyclopropoxy)-9-(thiazol-5-ylmethyl)-9H-purin-8-yl)phenoxy)-N-methylacetamide]	–	5.01	–
CNC(=O)COc1ccc(-c2nc3c(OC4(C)CC4)ncnc3n2Cc2ncc(C)s2)c(Cl)c1 [Example T28, 2-(3-chloro-4-(6-(1-methylcyclopropoxy)-9-((5-methylthiazol-2-yl)methyl)-9H-purin-8-yl)phenoxy)-N-methylacetamide]	–	0.631	–
CC1(Oc2ncnc3c2nc(-c2ccc(CC(N)=O)cc2Cl)n3Cc2cccc(Cl)c2)CC1 [Example T45, 2-(3-chloro-4-(9-(3-chlorobenzyl)-6-(1-methylcyclopropoxy)-9H-purin-8-yl)phenyl)acetamide]	–	0.0501	–
Cc1ccnc(Cn2c(-c3ccc(OCC(=O)N4CC[C@@](C)(O)C4)cc3Cl)nc3c(OC4(C)CC4)ncnc32)c1 [Example T581, (R)-2-(3-chloro-4-(6-(1-methylcyclopropoxy)-9-((4-methylpyridin-2-yl)methyl)-9H-purin-8-yl)phenoxy)-1-(3-hydroxy-3-methylpyrrolidin-1-yl)ethan-1-one]	–	–	IC50 [2]: 0.501 µM
Cc1ccnc(Cn2c(-c3ccc(OCC(=O)NC4(C)COC4)cc3Cl)nc3c(OC4(C)CC4)ncnc32)c1 [Example T476, 2-(3-chloro-4-(6-(1-methylcyclopropoxy)-9-((4-methylpyridin-2-yl)methyl)-9H-purin-8-yl)phenoxy)-N-(3-methyloxetan-3-yl)acetamide]	–	–	IC50 (DLD-1, proliferation, luminescence, taken as DLD-1 BRCA2-/-, read-out: POLQ PD Prolif Lumin (converted)): 0.251 µM
Cc1ccnc(Cn2c(-c3ccc(C(=O)NC4CC4)cc3Cl)nc3c(OC4(C)CC4)ncnc32)c1 [Example T170, 3-chloro-N-cyclopropyl-4-(6-(1-methylcyclopropoxy)-9-((4-methylpyridin-2-yl)methyl)-9H-purin-8-yl)benzamide]	0.631	–	–
CC1(Oc2ncnc3c2nc(-c2cccc(OCCCc4nn[nH]n4)c2Cl)n3Cc2cccc(Cl)c2)CC1 [Example T163, 8-(3-(3-(2H-tetrazol-5-yl)propoxy)-2-chlorophenyl)-9-(3-chlorobenzyl)-6-(1-methylcyclopropoxy)-9H-purine]	0.251	–	–
CC1(Oc2ncnc3c2nc(-c2cccc(OCC(F)(F)CC(=O)O)c2Cl)n3Cc2cccc(Cl)c2)CC1 [Example U63, 4-(2-chloro-3-(9-(3-chlorobenzyl)-6-(1-methylcyclopropoxy)-9H-purin-8-yl)phenoxy)-3,3-difluorobutanoic acid]	–	–	IC50 [4]: 0.501 µM
Cc1ccnc(Cn2c(-c3ccc(N4CCC4=O)cc3Cl)nc3c(OC4(C)CC4)ncnc32)c1 [Example T95, 1-(3-chloro-4-(6-(1-methylcyclopropoxy)-9-((4-methylpyridin-2-yl)methyl)-9H-purin-8-yl)phenyl)azetidin-2-one]	–	0.2	–
CC1(Oc2ncnc3c2nc(-c2ccc(OCCCC(C)(C)C(=O)O)cc2Cl)n3Cc2ccccc2C#N)CC1 [Example U21, 5-(3-chloro-4-(9-(2-cyanobenzyl)-6-(1-methylcyclopropoxy)-9H-purin-8-yl)phenoxy)-2,2-dimethylpentanoic acid]	–	–	IC50 [4]: 0.158 µM
Cc1ccnc(Cn2c(-c3ccc(CCO)cc3Cl)nc3c(OC4(C)CC4)ncnc32)c1 [Example T65, 2-(3-chloro-4-(6-(1-methylcyclopropoxy)-9-((4-methylpyridin-2-yl)methyl)-9H-purin-8-yl)phenyl)ethan-1-ol]	–	0.251	–
CCOc1ccc(Cl)cc1Cn1c(-c2ccc(OCCC(C)C(=O)O)cc2Cl)nc2c(OC3(C)CC3)ncnc21 (racemic) [Example U59, 4-(3-chloro-4-(9-(5-chloro-2-ethoxybenzyl)-6-(1-methylcyclopropoxy)-9H-purin-8-yl)phenoxy)-2-methylbutanoic acid]	–	–	IC50 [4]: 0.0631 µM
